Assay results from the supplement of paper PMC10307832.

Experiments:
Test in all cases: relative viability (nuclei count vs DMSO), 5 days (fraction); higher = more cells survive
[1] = compound: C1=CC=C(C(=C1)C2=CC=C(C=C2)C3=CSC4=C3C(=C(C(=O)N4)C#N)O)O + Cc1nc(Nc2ncc(C(=O)Nc3c(C)cccc3Cl)s2)cc(N2CCN(CCO)CC2)n1 [Dasatinib] (partner 0.075 µM)
Summary of the method: (§1)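 Each reported value is a median over duplicate plates. It expresses relative viability: treated-well nuclei count divided by vehicle-well nuclei count. Lung cancer cell lines in 1536-well plates were dosed by pin tool a day after seeding, alone with one drug or with a fixed anchor-drug dose plus five library-drug doses (not always all listed) in √10 steps, and nuclei were counted after 5 days.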

[2] = compound: C1=CC=C(C(=C1)C2=CC=C(C=C2)C3=CSC4=C3C(=C(C(=O)N4)C#N)O)O + Nc1nc2[nH]cc(CCc3ccc(C(=O)N[C@@H](CCC(=O)O)C(=O)O)cc3)c2c(=O)[nH]1 [Pemetrexed] (partner 0.2 µM)
Summary of the method: as §1

TGX 221 + Linsitinib = compound: CC1=CN2C(=O)C=C(N=C2C(=C1)C(C)NC3=CC=CC=C3)N4CCOCC4 [TGX 221] + C[C@]1(O)C[C@@H](c2nc(-c3ccc4ccc(-c5ccccc5)nc4c3)c3c(N)nccn32)C1 [Linsitinib] (partner 1 µM)
Summary of the method: as §1

[3] = compound: O=C(CCCCCCNC(=O)c1cnc(N(c2ccccc2)c2ccccc2)nc1)NO [Ricolinostat] + CS(=O)(=O)N1CCN(Cc2cc3nc(-c4cccc5[nH]ncc45)nc(N4CCOCC4)c3s2)CC1 [Pictilisib] (partner 1 µM)
Summary of the method: as §1

[4] = compound: O=C(CCCCCCNC(=O)c1cnc(N(c2ccccc2)c2ccccc2)nc1)NO [Ricolinostat] + C[C@@H](Oc1cc(-c2cnn(C3CCNCC3)c2)cnc1N)c1c(Cl)ccc(F)c1Cl [Crizotinib] (partner 1 µM)
Summary of the method: as §1

NCI-H1792
relative viability ([1]; first compound 0.253 µM): 0.803 | relative viability ([1]; first compound 2.53 µM): 0.722 | relative viability ([1]; first compound 8 µM): 0.508 | relative viability ([2]; first compound 0.253 µM): 0.835 | relative viability ([2]; first compound 0.8 µM): 0.714 | relative viability ([2]; first compound 2.53 µM): 0.649 | relative viability ([2]; first compound 8 µM): 0.477 | relative viability (TGX 221 + Linsitinib; first compound 0.08 µM): 0.501 | relative viability (TGX 221 + Linsitinib; first compound 0.253 µM): 0.553 | relative viability (TGX 221 + Linsitinib; first compound 0.8 µM): 0.361 | relative viability (TGX 221 + Linsitinib; first compound 2.53 µM): 0.435 | relative viability (TGX 221 + Linsitinib; first compound 8 µM): 0.326 | relative viability ([3]; first compound 0.08 µM): 0.248 | relative viability ([3]; first compound 0.253 µM): 0.281 | relative viability ([3]; first compound 0.8 µM): 0.243 | relative viability ([3]; first compound 2.53 µM): 0.169 | relative viability ([4]; first compound 0.08 µM): 0.849 | relative viability ([4]; first compound 0.253 µM): 0.988 | relative viability ([4]; first compound 0.8 µM): 0.913 | relative viability ([4]; first compound 2.53 µM): 1
